Data published in ChEMBL document CHEMBL4364275, “Jietacins, azoxy natural products, as novel NF-κB inhibitors: Discovery, synthesis, biological activity, and mode of action” (Eur J Med Chem, 2019).
≈ marks a conversion by molar mass, not a printed value. Calls of active or inactive are those of the source. The calls are words filed in the database; no cut-off is given here.

What was measured:
[1] = test system: ATN-1; test: Antiproliferative activity against human ATN1 cells assessed as reduction in cell viability measured after 24 hrs by MTT assay; assay type: functional; settings: ATN-1, 24 h, read-out: ED50 (the source's name)
[2] = test system: K562; test: Antiproliferative activity against human K562 cells assessed as reduction in cell viability at 10 ug/ml measured after 24 hrs by MTT assay relative to control; assay type: functional
[3] = species: Homo sapiens; test: Inhibition of NF-kappaB localization in nucleus of human L540 cells at 3 ug/ml measured after 5 hrs by DAPI staining immunofluorescence microscopy
[4] = species: Homo sapiens; test: Inhibition of NF-kappaB localization in nucleus of human L540 cells at 0.7 ug/ml measured after 5 to 24 hrs by DAPI staining immunofluorescence microscopy
[5] = species: Homo sapiens; test: Inhibition of NF-kappaB localization in nucleus of human L540 cells at 5 ug/ml measured after 5 hrs by DAPI staining immunofluorescence microscopy
[6] = species: Homo sapiens; test: Inhibition of NF-kappaB localization in nucleus of human L540 cells at 6 ug/ml measured after 5 hrs by DAPI staining immunofluorescence microscopy
[7] = species: Homo sapiens; test: Inhibition of NF-kappaB localization in nucleus of human L540 cells at 0.2 ug/ml measured after 5 hrs by DAPI staining immunofluorescence microscopy
[8] = species: Homo sapiens; test: Inhibition of TNF alpha stimulated NF-kappaB in human FL cells transfected with kappaB luciferase at 5 to 10 ug/ml incubated for 4 hrs followed by TNF alpha stimulation measured after 3 hrs by dual luciferase reporter gene assay; assay type: cell-based
[9] = species: Homo sapiens; test: Inhibition of TNF alpha stimulated NF-kappaB in human FL cells transfected with kappaB luciferase incubated for 2 hrs followed by TNF alpha stimulation measured after 3 hrs by dual luciferase reporter gene assay; assay type: cell-based
[10] = species: Homo sapiens; test: Antiproliferative activity against human KMM1 cells assessed as reduction in cell viability at 25 to 100 ng/ml measured after 24 to 48 hrs by MTT assay; assay type: functional, cell-based
[11] = test system: U-266; test: Antiproliferative activity against human U266 cells assessed as reduction in cell viability at 25 to 100 ng/ml measured after 24 to 48 hrs by MTT assay; assay type: functional, cell-based
[12] = test system: KM-H2; test: Antiproliferative activity against human KM-H2 cells assessed as reduction in cell viability at 25 to 100 ng/ml measured after 24 to 48 hrs by MTT assay; assay type: functional, cell-based
[13] = test system: L-540; test: Antiproliferative activity against human L540 cells assessed as reduction in cell viability at 25 to 100 ng/ml measured after 24 to 48 hrs by MTT assay; assay type: functional, cell-based
[14] = test system: HeLa; test: Antiproliferative activity against human HeLa cells assessed as reduction in cell viability at 25 to 100 ng/ml measured after 24 to 48 hrs by MTT assay; assay type: functional, cell-based
[15] = test system: K562; test: Antiproliferative activity against human K562 cells assessed as reduction in cell viability at 25 to 100 ng/ml measured after 24 to 48 hrs by MTT assay; assay type: functional, cell-based
[16] = species: Homo sapiens; test: Antiproliferative activity against human KK1 cells assessed as reduction in cell viability at 25 to 100 ng/ml measured after 24 to 48 hrs by MTT assay; assay type: functional, cell-based
[17] = species: Homo sapiens; test: Antiproliferative activity against human KOB cells assessed as reduction in cell viability at 25 to 100 ng/ml measured after 24 to 48 hrs by MTT assay; assay type: functional, cell-based
[18] = test system: HeLa; test: Inhibition of TNF alpha stimulated NF-kappaB localization in nucleus of human HeLa cells transfected with GFP-fused RelA C38S and IKBalpha expressing plasmid incubated for 2 hrs followed by TNF alpha stimulation by immunofluorescence microscopy; assay type: cell-based
[19] = test system: HeLa; test: Inhibition of TNF alpha stimulated NF-kappaB localization in nucleus of human HeLa cells transfected with GFP-fused RelA and IKBalpha expressing plasmid incubated for 2 hrs followed by TNF alpha stimulation by immunofluorescence microscopy; assay type: cell-based
[20] = test system: HeLa; test: Inhibition of TNF alpha stimulated NF-kappaB in human HeLa cells transfected with GFP-fused RelA mutant and IKBalpha expressing plasmid incubated for 2 hrs followed by TNF alpha stimulation by immunofluorescence microscopy; assay type: cell-based
[21] = test system: HeLa; test: Inhibition of TNF alpha stimulated NF-kappaB in human HeLa cells transfected with GFP-fused p50 mutant and IKBalpha expressing plasmid incubated for 2 hrs followed by TNF alpha stimulation by immunofluorescence microscopy; assay type: cell-based
[22] = target: Transcription factor p65 (Homo sapiens) (UniProt Q04206); test: Inhibition of NF-kappaB RelA association with importin alpha in human KM-H2 cells at 0.2 ug/ml after 6 hrs by immunoprecipitation method; assay type: cell-based
Chain of Transcription factor p65 (Homo sapiens) (Q04206 whole entry): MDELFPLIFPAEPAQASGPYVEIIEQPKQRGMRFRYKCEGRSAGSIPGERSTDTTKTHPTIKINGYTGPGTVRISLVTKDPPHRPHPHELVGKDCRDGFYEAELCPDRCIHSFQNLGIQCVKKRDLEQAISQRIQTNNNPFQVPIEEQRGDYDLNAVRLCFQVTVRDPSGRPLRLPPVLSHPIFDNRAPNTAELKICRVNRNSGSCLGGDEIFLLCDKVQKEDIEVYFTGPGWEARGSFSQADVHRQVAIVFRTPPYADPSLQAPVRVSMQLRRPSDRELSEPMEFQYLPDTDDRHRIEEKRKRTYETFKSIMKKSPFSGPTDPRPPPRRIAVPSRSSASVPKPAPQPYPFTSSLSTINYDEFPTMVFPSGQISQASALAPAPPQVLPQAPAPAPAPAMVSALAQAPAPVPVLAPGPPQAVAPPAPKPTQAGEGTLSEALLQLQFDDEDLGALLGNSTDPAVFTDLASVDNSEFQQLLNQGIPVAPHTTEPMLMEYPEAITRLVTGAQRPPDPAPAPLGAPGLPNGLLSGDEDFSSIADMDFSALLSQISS

[23] = Acute toxicity in rat; settings: in vivo
[24] = target: T1, Importin subunit alpha-4 (Homo sapiens) (UniProt O00505); test: Inhibition of importin alpha 3 in human KM-H2 cells at 0.2 ug/ml after 6 hrs by Western blot analysis (reference value: 1); assay type: cell-based
T1 sequence (whole entry): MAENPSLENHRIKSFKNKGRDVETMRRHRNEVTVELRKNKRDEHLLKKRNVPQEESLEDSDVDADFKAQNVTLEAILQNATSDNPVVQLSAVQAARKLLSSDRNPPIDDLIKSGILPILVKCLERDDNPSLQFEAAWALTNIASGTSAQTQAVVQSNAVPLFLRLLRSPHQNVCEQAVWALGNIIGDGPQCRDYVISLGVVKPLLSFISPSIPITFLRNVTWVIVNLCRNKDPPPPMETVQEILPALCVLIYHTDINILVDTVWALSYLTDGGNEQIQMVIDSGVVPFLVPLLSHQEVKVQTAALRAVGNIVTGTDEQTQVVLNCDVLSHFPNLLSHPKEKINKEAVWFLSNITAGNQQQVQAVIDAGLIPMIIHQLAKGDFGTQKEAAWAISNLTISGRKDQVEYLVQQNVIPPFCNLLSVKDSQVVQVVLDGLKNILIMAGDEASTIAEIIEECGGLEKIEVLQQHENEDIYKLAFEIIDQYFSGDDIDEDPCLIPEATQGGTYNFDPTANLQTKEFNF

[25] = species: Homo sapiens; test: Inhibition of NF-kappaB localization in nucleus of human L540 cells at 1.5 ug/ml measured after 5 hrs by DAPI staining immunofluorescence microscopy
[26] = species: Homo sapiens; test: Inhibition of NF-kappaB localization in nucleus of human L540 cells at 10 ug/ml measured after 5 to 24 hrs by DAPI staining immunofluorescence microscopy

Row | Compound | EC50 [1] [µg/mL] | Activity [2] [%] | other results
1 | C=C/[N+]([O-])=N/CCCCCCCCn1cc(C(C)(C)C)nn1 | 0.69 (≈ 2.24 µM) | <20 | inhibition [3]: Active
2 | CC1(C)CCC2=C(O1)c1ccccc1C(=O)C2=O |  |  | inhibition [4]: inactive
3 | C=C/[N+]([O-])=N/CCCCCCCCn1cc(-c2ccccc2)nn1 | 0.76 (≈ 2.32 µM) | <20 | 
4 | C=C/[N+]([O-])=N/CCCCCCCCOS(C)(=O)=O | 1.18 (≈ 4.24 µM) | <20 | 
5 | C=C/[N+]([O-])=N/CCCCCCCCn1cc(-c2cc3ccccc3c3ccccc23)nn1 | 1.03 (≈ 2.41 µM) | <20 | 
6 | C=C/[N+]([O-])=N/CCCCCCCCn1cc(CC(C)C)nn1 | 0.83 (≈ 2.7 µM) | <20 | 
7 | C=C/[N+]([O-])=N/CCc1ccccc1 | 1.03 (≈ 5.84 µM) | <20 | inhibition [5]: Active
8 | C=C/[N+]([O-])=N/CCCCCCCCn1cc(CCCCC#N)nn1 | 0.97 (≈ 2.92 µM) | <20 | 
9 | C=C/[N+]([O-])=N/CCCCCCCCn1cc(CCCC)nn1 | 0.69 (≈ 2.24 µM) | <20 | 
10 | C=C/[N+]([O-])=N/CCCCCCCCn1cc([Si](C)(C)C)nn1 | 0.68 (≈ 2.1 µM) | <20 | 
11 | C=C/[N+]([O-])=N/CCCCCCCCn1cc(-c2ccc(N)cc2)nn1 | 0.76 (≈ 2.22 µM) | <20 | 
12 | C=C/[N+]([O-])=N/CCCCCCCCn1cc(CCCCO)nn1 | 0.71 (≈ 2.2 µM) | <20 | inhibition [3]: Active
13 | C=C/[N+]([O-])=N/CCCCCCCC(=O)CCCCC[C@@H](C)CC | 1.65 (≈ 5.08 µM) | <20 | 
14 | C=C/[N+]([O-])=N/CCCCCCCC(C)=O | 2.26 (≈ 10.6 µM) | <20 | 
15 | C=C/[N+]([O-])=N/CCCCCCCCn1cc(C(C)(C)O)nn1 | 1.15 (≈ 3.72 µM) | <20 | 
16 | C=C/[N+]([O-])=N/CCCCCCCCn1cc(C(C)C)nn1 | 0.84 (≈ 2.86 µM) | <20 | 
17 | C=C/[N+]([O-])=N/CCCCCCCC(=O)CCCCCCC(C)C | 1.17 (≈ 3.61 µM) | <20 | inhibition [6]: Active

Row | Compound | EC50 [1] [µg/mL] | Activity [2] [%] | other results
18 | C=C/[N+]([O-])=N/CCCCCCCCn1ccnn1 | 1.01 (≈ 4.02 µM) | <20 | 
19 | C=C/[N+]([O-])=N/CCCCCCCCn1cc(C2(O)CCCCC2)nn1 | 1.31 (≈ 3.75 µM) | <20 | 
20 | C#CC(=O)CCCCCCC/N=[N+](\[O-])C=C | 0.03 (≈ 0.135 µM) | <20 | inhibition [7]: Active; inhibition [8]: Active; inhibition [9]: Dose-dependent effect; Activity [10]: Active; Activity [11]: Active; Activity [12]: Active; Activity [13]: Active; Activity [14]: Active; Activity [15]: Active; Activity [16]: Active; Activity [17]: Active; inhibition [18]: inactive; inhibition [19]: Active; inhibition [20]: inactive; inhibition [21]: Active; inhibition [22]: Active; LD50 [23]: > 300 mg/kg; fold change (FC) [24]: 0.53
21 | C=C/[N+]([O-])=N/CCCCCCCCn1cc(-c2cccnc2)nn1 | 0.82 (≈ 2.5 µM) | <20 | 
22 | C=C/[N+]([O-])=N/CCCCCCCC(=O)CCCCC[C@H](C)CC | 1.49 (≈ 4.59 µM) | <20 | 
23 | C=C/[N+]([O-])=N/CCCCCCCCn1cc(CCC(C)C)nn1 | 0.72 (≈ 2.24 µM) | <20 | 
24 | C=C/[N+]([O-])=N/CCCCCCCCn1cc(CN(Cc2cn(CCCCCCCC/N=[N+](\[O-])C=C)nn2)Cc2cn(CCCCCCCC/N=[N+](\[O-])C=C)nn2)nn1 | 0.23 (≈ 0.285 µM) | <20 | inhibition [25]: Active
25 | C=CC(C)(C)[C@@]12C=C(OC)C(=O)N3/C(=C/c4c[nH]cn4)C(=O)N[C@]31N(OC)c1ccccc12 |  |  | inhibition [26]: inactive
26 | C=C/[N+]([O-])=N/CCCCCCCCn1cc(C2CC2)nn1 | 0.84 (≈ 2.88 µM) | <20 | inhibition [3]: Active
27 | C=C/[N+]([O-])=N/CCCCCCCCn1cc(CCBr)nn1 | 0.97 (≈ 2.71 µM) | <20 | 
28 | C=C/[N+]([O-])=N/CCCCCCCCO[Si](C)(C)C(C)(C)C | 1.34 (≈ 4.26 µM) | <20 | 
29 | C=C/[N+]([O-])=N/CCCCCCCCO | 1.05 (≈ 5.24 µM) | <20 | 
30 | C=C/[N+]([O-])=N/CCCCCCCCn1nncc1CCC(C)C | 0.85 (≈ 2.64 µM) | <20 | 
31 | C=C/[N+]([O-])=N/CCCCCCCC(=O)CCc1ccccc1 | 1.09 (≈ 3.6 µM) | <20 | 
32 | C=C/[N+]([O-])=N/CCCCCCCC(=O)CCCCCC | 1.29 (≈ 4.57 µM) | <20 | 
33 | C=C/[N+]([O-])=N/CCCCCCCC(=O)CCCCCC(C)C | 1.82 (≈ 5.86 µM) | <20 | inhibition [26]: Active; inhibition [8]: Active
